Assay results reported in PubChem BioAssay AID256 (DTP/NCI, 2004).
Where “and” joins values, the source holds several entries; their conditions need not be identical. Identical values can stand only once. Inconclusive results and toxic doses are left out.

Test system: CD2F1 mice, L1210 leukemia ip, survival T/C
Assay: NCI In Vivo Anticancer Drug Screen. Data for tumor model L1210 Leukemia (intraperitoneal) in CD2F1 (CDF1) mice
Settings: higher = longer survival
In short: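 Mice carrying a transplanted tumor received test compound or vehicle alone. The value is the measurement in the treated group divided by that in the vehicle-treated control group.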

[1] = endpoint: mean survival time, dose: 100.0 mg/kg/injection, schedule: Q04DX003 (ip), vehicle: saline with Tween-80
[2] = endpoint: mean survival time, dose: 200.0 mg/kg/injection, schedule: Q04DX003 (ip), vehicle: saline with Tween-80
[3] = endpoint: mean survival time, dose: 400.0 mg/kg/injection, schedule: Q04DX003 (ip), vehicle: saline with Tween-80
[4] = endpoint: mean survival time, dose: 200.0 mg/kg/injection, schedule: Q01DX009 (ip), vehicle: saline
[5] = endpoint: mean survival time, dose: 400.0 mg/kg/injection, schedule: Q01DX009 (ip), vehicle: saline
[6] = endpoint: mean survival time, dose: 100.0 mg/kg/injection, schedule: Q01DX009 (ip), vehicle: saline with Tween-80
[7] = endpoint: mean survival time, dose: 200.0 mg/kg/injection, schedule: Q01DX009 (ip), vehicle: saline with Tween-80
[8] = endpoint: mean survival time, dose: 400.0 mg/kg/injection, schedule: Q01DX009 (ip), vehicle: saline with Tween-80

Compound: COc1cc2ccc3c4cc5c(cc4c[n+](C)c3c2cc1OC)OCO5
- T/C (endpoint: mean survival time, dose: 10.0 mg/kg/injection, schedule: Q01DX009 (ip), vehicle: Klucel (hydroxypropylcellulose) (HPC)): 119 % of control
- T/C (endpoint: mean survival time, dose: 20.0 mg/kg/injection, schedule: Q01DX009 (ip), vehicle: Klucel (hydroxypropylcellulose) (HPC)): 119 % of control
- T/C (endpoint: mean survival time, dose: 40.0 mg/kg/injection, schedule: Q01DX009 (ip), vehicle: Klucel (hydroxypropylcellulose) (HPC)): 121 % of control
- T/C (endpoint: mean survival time, dose: 80.0 mg/kg/injection, schedule: Q01DX009 (ip), vehicle: Klucel (hydroxypropylcellulose) (HPC)): 115 % of control
- T/C (endpoint: mean survival time, dose: 160.0 mg/kg/injection, schedule: Q01DX009 (ip), vehicle: Klucel (hydroxypropylcellulose) (HPC)): 97 % of control

Compound: O=C(CCC(O)(C(=O)c1ccccc1)c1ccccc1)c1ccccc1 (stereo not given)
- T/C [1]: 91 % of control
- T/C [2]: 94 % of control
- T/C [3]: 88 % of control

Compound: CCOCCNCc1ccc(Cl)cc1Cl
- T/C [1]: 91 % of control
- T/C [2]: 94 % of control

Compound: O=S(=O)(O)CCCBr
- T/C (endpoint: mean survival time, dose: 100.0 mg/kg/injection, schedule: Q01DX009 (ip), vehicle: saline): 93 % of control
- T/C [4]: 105 % of control
- T/C [5]: 100 % of control

Compound: Cc1c(N)nc(I)c2ccccc12
- T/C [6]: 98 % of control
- T/C [7]: 93 % of control
- T/C [8]: 87 % of control

Compound: O=C(Nc1ccc2ccccc2c1)c1ccc(Cl)cc1Cl
- T/C [1]: 96 % of control
- T/C [2]: 98 % of control
- T/C [3]: 95 % of control

Compound: Cc1ccc(S(=O)(=O)NC(=O)OC23COCN2COC3)cc1
- T/C (endpoint: mean survival time, dose: 12.5 mg/kg/injection, schedule: Q01DX009 (ip), vehicle: saline with Tween-80): 96 % of control and 101 % of control
- T/C (endpoint: mean survival time, dose: 25.0 mg/kg/injection, schedule: Q01DX009 (ip), vehicle: saline with Tween-80): 96 % of control and 102 % of control
- T/C (endpoint: mean survival time, dose: 50.0 mg/kg/injection, schedule: Q01DX009 (ip), vehicle: saline with Tween-80): 97 % of control and 101 % of control
- T/C [6]: 117 % of control and 102 % of control
- T/C [7]: 113 % of control and 108 % of control
- T/C [8]: 113 % of control and 105 % of control

Compound: O=C1CCCC1=P(c1ccccc1)(c1ccccc1)c1ccccc1
- T/C (endpoint: mean survival time, dose: 100.0 mg/kg/injection, schedule: Q04DX003 (ip), vehicle: other): 99 % of control
- T/C (endpoint: mean survival time, dose: 200.0 mg/kg/injection, schedule: Q04DX003 (ip), vehicle: other): 90 % of control

Compound: O=c1ccn(C2OC(CO)C(O)C2O)c(/C=C(\O)c2ccccc2)n1 (stereo not given)
- T/C (endpoint: mean survival time, dose: 12.5 mg/kg/injection, schedule: Q01DX005 (ip), vehicle: distilled water + Tween-80): 105 % of control
- T/C (endpoint: mean survival time, dose: 25.0 mg/kg/injection, schedule: Q01DX005 (ip), vehicle: distilled water + Tween-80): 97 % of control
- T/C (endpoint: mean survival time, dose: 50.0 mg/kg/injection, schedule: Q01DX005 (ip), vehicle: distilled water + Tween-80): 97 % of control
- T/C (endpoint: mean survival time, dose: 100.0 mg/kg/injection, schedule: Q01DX005 (ip), vehicle: distilled water + Tween-80): 102 % of control
- T/C (endpoint: mean survival time, dose: 200.0 mg/kg/injection, schedule: Q01DX005 (ip), vehicle: distilled water + Tween-80): 102 % of control

Compound: Cn1c(=O)c2c(nc(N3CCOCC3)n2CCCNCC(O)c2cc(O)cc(O)c2)n(C)c1=O (stereo not given)
- T/C (endpoint: mean survival time, dose: 12.5 mg/kg/injection, schedule: Q01DX005 (ip), vehicle: water): 100 % of control
- T/C (endpoint: mean survival time, dose: 25.0 mg/kg/injection, schedule: Q01DX005 (ip), vehicle: water): 96 % of control
- T/C (endpoint: mean survival time, dose: 50.0 mg/kg/injection, schedule: Q01DX005 (ip), vehicle: water): 94 % of control
- T/C (endpoint: mean survival time, dose: 100.0 mg/kg/injection, schedule: Q01DX005 (ip), vehicle: water): 97 % of control
- T/C (endpoint: mean survival time, dose: 200.0 mg/kg/injection, schedule: Q01DX005 (ip), vehicle: water): 92 % of control

Compound: CC[CH2][Sn]([CH2]CC)([CH2]CCC#N)[O]C(C)=O
- T/C (endpoint: mean survival time, dose: 0.09 mg/kg/injection, schedule: Q01DX009 (ip), vehicle: saline): 97 % of control
- T/C (endpoint: mean survival time, dose: 0.19 mg/kg/injection, schedule: Q01DX009 (ip), vehicle: saline): 101 % of control
- T/C (endpoint: mean survival time, dose: 0.39 mg/kg/injection, schedule: Q01DX009 (ip), vehicle: saline): 100 % of control and 105 % of control
- T/C (endpoint: mean survival time, dose: 1.56 mg/kg/injection, schedule: Q01DX009 (ip), vehicle: saline): 103 % of control

Compound: Cc1cc(N2CCN(C)CC2)n2nc(-c3ccc(Cl)cc3)nc2n1
- T/C (endpoint: mean survival time, dose: 50.0 mg/kg/injection, schedule: Q01DX001 (ip), vehicle: Klucel (hydroxypropylcellulose) (HPC)): 120 % of control
- T/C (endpoint: mean survival time, dose: 50.0 mg/kg/injection, schedule: Q01DX009 (ip), vehicle: Klucel (hydroxypropylcellulose) (HPC)): 100 % of control
- T/C (endpoint: mean survival time, dose: 100.0 mg/kg/injection, schedule: Q01DX001 (ip), vehicle: Klucel (hydroxypropylcellulose) (HPC)): 95 % of control
- T/C (endpoint: mean survival time, dose: 100.0 mg/kg/injection, schedule: Q01DX009 (ip), vehicle: Klucel (hydroxypropylcellulose) (HPC)): 99 % of control
- T/C (endpoint: mean survival time, dose: 200.0 mg/kg/injection, schedule: Q01DX001 (ip), vehicle: Klucel (hydroxypropylcellulose) (HPC)): 93 % of control
- T/C (endpoint: mean survival time, dose: 200.0 mg/kg/injection, schedule: Q01DX009 (ip), vehicle: Klucel (hydroxypropylcellulose) (HPC)): 97 % of control

Compound: COC1=C(C)C(=O)C2=C(C1=O)C1C3CC4=C(C(=O)C(OC)=C(C)C4=O)C(CNC(=O)C(C)=O)N3C(C#N)C(C2)N1C (stereo not given)
- T/C (endpoint: median survival time, dose: 0.13 mg/kg/injection, schedule: Q01DX009 (ip), vehicle: Klucel (hydroxypropylcellulose) (HPC)): 118 % of control
- T/C (endpoint: median survival time, dose: 0.25 mg/kg/injection, schedule: Q01DX009 (ip), vehicle: Klucel (hydroxypropylcellulose) (HPC)): 110 % of control
- T/C (endpoint: median survival time, dose: 0.5 mg/kg/injection, schedule: Q01DX009 (ip), vehicle: Klucel (hydroxypropylcellulose) (HPC)): 113 % of control and 108 % of control
- T/C (endpoint: median survival time, dose: 1.0 mg/kg/injection, schedule: Q01DX009 (ip), vehicle: Klucel (hydroxypropylcellulose) (HPC)): 116 % of control and 112 % of control
- T/C (endpoint: median survival time, dose: 2.0 mg/kg/injection, schedule: Q01DX009 (ip), vehicle: Klucel (hydroxypropylcellulose) (HPC)): 108 % of control
- T/C (endpoint: median survival time, dose: 62.5 micrograms/kg/injection, schedule: Q01DX009 (ip), vehicle: Klucel (hydroxypropylcellulose) (HPC)): 100 % of control
- T/C (endpoint: median survival time, dose: 125.0 micrograms/kg/injection, schedule: Q01DX009 (ip), vehicle: Klucel (hydroxypropylcellulose) (HPC)): 104 % of control
- T/C (endpoint: median survival time, dose: 250.0 micrograms/kg/injection, schedule: Q01DX009 (ip), vehicle: Klucel (hydroxypropylcellulose) (HPC)): 108 % of control
- T/C (endpoint: median survival time, dose: 500.0 micrograms/kg/injection, schedule: Q01DX009 (ip), vehicle: Klucel (hydroxypropylcellulose) (HPC)): 117 % of control
- T/C (endpoint: median survival time, dose: 1000.0 micrograms/kg/injection, schedule: Q01DX009 (ip), vehicle: Klucel (hydroxypropylcellulose) (HPC)): 122 % of control

Compound: CC(=O)[c-]1[c-][c-][c-][c-]1.[Fe+2].[c-]1[c-][c-][cH-][c-]1
- T/C (endpoint: mean survival time, dose: 200.0 mg/kg/injection, schedule: Q01DX001 (ip), vehicle: saline): 102 % of control
- T/C (endpoint: mean survival time, dose: 400.0 mg/kg/injection, schedule: Q01DX001 (ip), vehicle: saline): 100 % of control

Compound: CN(C)N=Nc1c(Cl)cccc1Cl
- T/C (endpoint: mean survival time, dose: 9.38 mg/kg/injection, schedule: Q01DX009 (ip), vehicle: Klucel (hydroxypropylcellulose) (HPC)): 101 % of control
- T/C (endpoint: mean survival time, dose: 18.75 mg/kg/injection, schedule: Q01DX009 (ip), vehicle: Klucel (hydroxypropylcellulose) (HPC)): 95 % of control and 103 % of control
- T/C (endpoint: mean survival time, dose: 37.5 mg/kg/injection, schedule: Q01DX009 (ip), vehicle: Klucel (hydroxypropylcellulose) (HPC)): 97 % of control and 110 % of control
- T/C (endpoint: mean survival time, dose: 300.0 mg/kg/injection, schedule: Q01DX009 (ip), vehicle: Klucel (hydroxypropylcellulose) (HPC)): 89 % of control

Compound: NC(COC(c1ccccc1)(c1ccccc1)c1ccccc1)C(=O)O (stereo not given)
- T/C (endpoint: mean survival time, dose: 25.0 mg/kg/injection, schedule: Q01DX009 (ip), vehicle: saline): 103 % of control
- T/C (endpoint: mean survival time, dose: 50.0 mg/kg/injection, schedule: Q01DX009 (ip), vehicle: saline): 113 % of control
- T/C [4]: 150 % of control
- T/C (endpoint: mean survival time, dose: 300.0 mg/kg/injection, schedule: Q01DX009 (ip), vehicle: saline): 122 % of control
- T/C [5]: 111 % of control

Compound: CC1=CC(S)NC(=S)N1 (stereo not given)
- T/C (endpoint: mean survival time, dose: 100.0 mg/kg/injection, schedule: Q04DX002 (ip), vehicle: saline with Tween-80): 103 % of control
- T/C (endpoint: mean survival time, dose: 200.0 mg/kg/injection, schedule: Q04DX002 (ip), vehicle: saline with Tween-80): 95 % of control
- T/C (endpoint: mean survival time, dose: 400.0 mg/kg/injection, schedule: Q04DX002 (ip), vehicle: saline with Tween-80): 106 % of control

Compound: O=C1c2c(Cl)c(Cl)c(Cl)c(Cl)c2C(=O)N1O
- T/C [1]: 98 % of control
- T/C [7]: 98 % of control
- T/C [2]: 98 % of control
- T/C [3]: 101 % of control

Compound: COc1nc(NC2OC(CO)C(O)C(O)C2O)cc(=O)n1C (stereo not given)
- T/C (endpoint: median survival time, dose: 12.5 mg/kg/injection, schedule: Q01DX005 (ip), vehicle: saline): 98 % of control
- T/C (endpoint: median survival time, dose: 25.0 mg/kg/injection, schedule: Q01DX005 (ip), vehicle: saline): 98 % of control
- T/C (endpoint: median survival time, dose: 50.0 mg/kg/injection, schedule: Q01DX005 (ip), vehicle: saline): 100 % of control
- T/C (endpoint: median survival time, dose: 100.0 mg/kg/injection, schedule: Q01DX005 (ip), vehicle: saline): 102 % of control
- T/C (endpoint: median survival time, dose: 200.0 mg/kg/injection, schedule: Q01DX005 (ip), vehicle: saline): 102 % of control
